Results published in patent US20250032651A1, “[177LU] LUTETIUM-PSMA I&T COMPOSITION AND DOSIMETRY, KIT, METHOD OF MAKING, AND METHOD OF USING THEREOF” (Curium US LLC, priority 2022, published 2025).
“And” between values parts separate entries of the source, which are not always exact repeats. Equal entries are not always repeated.

Experiment: Plasma PK: gamma-counted plasma radioactivity, bi-exponential fit
Type: in vivo, human
Conditions: plasma
Description: Additionally, for PK assessment, whole blood samples were collected at six timepoints (Pre-Infusion, 1 h, 4 h, 24 h, 48 h, and 168 h) and processed to extract plasma. All plasma samples were gamma counted locally for analysis of pharmacokinetics.
PK plasma samples were collected at pre-Infusion, 1 h, 4 h, 24 h, 48 h, and 168 h, and counted for radioactivity. Blood samples were first centrifuged to extract plasma, and then the radioactivity in plasma was counted in a gamma counter.
Whole blood samples were collected as detailed in the protocol Schedule of Events i.e. pre-injection, and then at 1 h, 4 h, 24 h, 48 h, and 168 h post-injection. The samples were first centrifuged to separate plasma, and the radioactivity in the plasma was then measured using a gamma counter. Plasma concentrations were subsequently fitted with a bi-exponential function to derive outcome parameters such as the half-life and clearance rate of the radiopharmaceutical in the plasma.

[1] = Cycle 3, individual patient values

## O=C([O-])CC[C@H](NC(=O)N[C@@H](CCCCNC(=O)CCCCCCC(=O)NCCCC[C@@H](NC(=O)[C@@H](Cc1ccccc1)NC(=O)[C@@H](Cc1ccc(O)c(I)c1)NC(=O)CC[C@H](C(=O)[O-])N1CCN(CC(=O)[O-])CCN(CC(=O)[O-])CCN(CC(=O)[O-])CC1)C(=O)[O-])C(=O)[O-])C(=O)[O-].[177Lu+3].[H+].[H+].[H+].[H+].[H+] [^177Lu-PSMA I&T, (3S,7S,26R,29R,32R,37R)-29-benzyl-32-(4-hydroxy-3-iodobenzyl)-5,13,20,28,31,34-hexaoxo-37-(4,7,10-tris(carboxymethyl)-1,4,7,10-tetraazacyclododecan-1-yl)-4,6,12,21,27,30,33-heptaazaheptatriacontane-1,3,7,26,37-pentacarboxylic acid; lutetium-177 (III)]
Cycle 1, min
  AUC Total: 3.07 fIA/L × min
  Clearance Rate: 2.89 L/h
  Peak Concentration Value: 0.01 fIA/L
  Time of Peak Concentration: 33.00 min
  Vc: 9.92 L
  Vd: 54.60 L
Cycle 3, Mean (n=15)
  AUC Total: 25.58 fIA/L × min
  Peak Concentration Value: 0.05 fIA/L
  Rate Clearance: 9.65 L/h
  Vc: 16.40 L
  Vd: 141.49 L
[1]
  AUC Total: 26.16 fIA/L x min and 29.32 fIA/L x min and 20.20 fIA/L x min (2×) and 36.74 fIA/L x min and 16.57 fIA/L x min and 19.01 fIA/L x min and 17.88 fIA/L x min and 23.21 fIA/L x min and 13.86 fIA/L x min and 24.55 fIA/L x min and 22.70 fIA/L x min and 39.62 fIA/L x min and 28.52 fIA/L x min and 36.09 fIA/L x min and 29.33 fIA/L x min
  Clearance Rate: 7.68 L/h and 6.78 L/h and 7.81 L/h and 4.95 L/h and 14.60 L/h and 18.27 L/h and 9.22 L/h and 8.52 L/h and 25.73 L/h and 11.43 L/h and 13.59 L/h and 3.34 L/h and 5.74 L/h and 3.01 L/h and 4.07 L/h
  Distribution Half-Life: 2.07 h and 1.69 h and 1.88 h and 2.30 h and 2.06 h and 1.64 h and 2.55 h and 2.28 h and 1.85 h and 2.11 h and 3.17 h and 2.61 h and 2.22 h
  Elimination Half-Life: 12.51 h and 11.70 h and 10.92 h and 9.33 h and 9.92 h and 8.16 h and 9.10 h and 9.11 h and 10.32 h and 9.75 h and 9.63 h and 10.67 h and 18.37 h and 14.16 h
  Peak Concentration Value: 0.04 fIA/L (7×) and 0.05 fIA/L (4×) and 0.06 fIA/L (2×) and 0.07 fIA/L and 0.03 fIA/L (2×)
  Time of Peak Concentration: 60.00 min (5×) and 68.00 min and 61.00 min (3×) and 66.00 min (2×) and 55.00 min (2×) and 65.00 min and 59.00 min (2×)
  Vc: 11.98 L and 11.38 L and 21.49 L (2×) and 10.66 L and 16.42 L and 16.53 L and 24.53 L and 17.80 L and 20.07 L and 13.50 L and 14.30 L and 15.13 L and 18.12 L and 16.40 L and 17.66 L
  Vd: 129.70 L and 106.80 L and 105.05 L and 70.92 L and 171.89 L and 239.78 L and 121.21 L and 126.73 L and 361.81 L and 158.71 L and 191.15 L and 51.46 L and 152.16 L and 61.59 L and 73.36 L
Cycle 3, individual patients
  AUC Total: 29.32 fIA/L × min and 20.20 fIA/L × min (2×) and 36.74 fIA/L × min and 16.57 fIA/L × min and 19.01 fIA/L × min and 17.88 fIA/L × min and 23.21 fIA/L × min and 13.86 fIA/L × min and 24.55 fIA/L × min and 22.70 fIA/L × min and 39.62 fIA/L × min and 28.52 fIA/L × min and 36.09 fIA/L × min and 29.33 fIA/L × min and 26.16 fIA/L × min
  Peak Concentration Value: 0.06 fIA/L (2×) and 0.04 fIA/L (7×) and 0.07 fIA/L and 0.03 fIA/L (2×) and 0.05 fIA/L (4×)
  Vc: 11.38 L and 21.49 L (2×) and 10.66 L and 16.42 L and 16.53 L and 24.53 L and 17.80 L and 20.07 L and 13.50 L and 14.30 L and 15.13 L and 18.12 L and 16.40 L and 17.66 L and 11.98 L
  Vd: 106.80 L and 105.05 L and 70.92 L and 171.89 L and 239.78 L and 121.21 L and 126.73 L and 361.81 L and 158.71 L and 191.15 L and 51.46 L and 152.16 L and 61.59 L and 73.36 L and 129.70 L
Cycle 3, max
  AUC Total: 39.62 fIA/L × min
  Peak Concentration Value: 0.07 fIA/L
  Rate Clearance: 25.73 L/h
  Vc: 24.53 L
  Vd: 361.81 L
Cycle 3, median
  AUC Total: 24.55 fIA/L × min
  Peak Concentration Value: 0.04 fIA/L
  Rate Clearance: 7.81 L/h
  Vc: 16.42 L
  Vd: 126.73 L
Cycle 3, min
  AUC Total: 13.86 fIA/L × min
  Peak Concentration Value: 0.03 fIA/L
  Rate Clearance: 3.01 L/h
  Vc: 10.66 L
  Vd: 51.46 L
Cycle 3, n = 15
  AUC Total, Mean: 25.58 fIA/L x min
  AUC Total, max: 39.62 fIA/L x min
  AUC Total, median: 24.55 fIA/L x min
  AUC Total, min: 13.86 fIA/L x min
  Clearance Rate, Mean: 9.65 L/h
  Clearance Rate, max: 25.73 L/h
  Clearance Rate, median: 7.81 L/h
  Clearance Rate, min: 3.01 L/h
  Distribution Half-Life, Mean: 2.17 h
  Distribution Half-Life, max: 3.17 h
  Distribution Half-Life, median: 2.07 h
  Distribution Half-Life, min: 1.64 h
  Elimination Half-Life, Mean: 10.89 h
  Elimination Half-Life, max: 18.37 h
  Elimination Half-Life, median: 9.92 h
  Elimination Half-Life, min: 8.16 h
  Peak Concentration Value, Mean: 0.05 fIA/L
  Peak Concentration Value, max: 0.07 fIA/L
  Peak Concentration Value, median: 0.04 fIA/L
  Peak Concentration Value, min: 0.03 fIA/L
  Time of Peak Concentration: 55.00 min
  Time of Peak Concentration, Mean: 60.67 min
  Time of Peak Concentration, max: 68.00 min
  Time of Peak Concentration, median: 60.00 min
  Vc, Mean: 16.40 L
  Vc, max: 24.53 L
  Vc, median: 16.42 L
  Vc, min: 10.66 L
  Vd, Mean: 141.49 L
  Vd, max: 361.81 L
  Vd, median: 126.73 L
  Vd, min: 51.46 L
